The record followed here is ChEMBL document CHEMBL5729355, “N/O-linked Degrons and Degronimers for protein degradation” (2022).

The experiment deals with Protein cereblon/DNA damage-binding protein 1 (Homo sapiens, UniProt Q96SW2). In words: Fluorescence Polarization (FP) Assay for Screening Compound Ligand Binders of CRBN-DDM: Measuring compound ligand binding to CRBN-DDB1 was carried out using an established sensitive and quantitative in vitro fluorescence polarization (FP) based binding assay. (See, I. J. Enyedy et al, J. Med. Chem., 44: 3134324, 2001). Compounds were dispensed from serially diluted DMSO stock into black 384-well compatible fluorescence polarization plates using an Echo acoustic dispenser. Compound binding to CRBN-DDB1 was measured by displacement of either a (−)-Thalidomide-Alexa Fluor® or Pornalidomide-fluorescein conjugated probe dye. A 20 μL mixture containing 400 nM CRBN-DDB1 and 5 nM probe dye in 50 mM Hepes, pH 7.4, 200 mM NaCl, 1% DMSO and 0.05% pluronic acid-127 acid was added to wells containing compound and incubated at room temperature for 60 min. Matching control wells excluding CRBN-DDB1 were used to correct for background fluorescence. Plates were read on an Envision plate reader with appropriate FP filter sets. […]. Format: protein assay. (Polarisation of emitted light reports the rotation of a fluorescent probe.)
Sequence of Protein cereblon/DNA damage-binding protein 1 (Q96SW2 whole entry): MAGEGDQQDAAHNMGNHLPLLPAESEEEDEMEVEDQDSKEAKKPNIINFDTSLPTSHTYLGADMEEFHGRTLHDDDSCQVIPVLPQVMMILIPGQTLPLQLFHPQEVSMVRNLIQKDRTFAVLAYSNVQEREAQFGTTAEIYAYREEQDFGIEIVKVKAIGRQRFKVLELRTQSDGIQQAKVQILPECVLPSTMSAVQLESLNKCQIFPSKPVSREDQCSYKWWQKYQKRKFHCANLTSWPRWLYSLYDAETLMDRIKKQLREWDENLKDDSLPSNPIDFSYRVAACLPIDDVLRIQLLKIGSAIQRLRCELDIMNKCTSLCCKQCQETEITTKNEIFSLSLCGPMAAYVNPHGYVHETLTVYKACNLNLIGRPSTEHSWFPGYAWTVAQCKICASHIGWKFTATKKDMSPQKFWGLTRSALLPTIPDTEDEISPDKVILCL
Sequence of Protein cereblon/DNA damage-binding protein 1 (Q16531 whole entry, further chain): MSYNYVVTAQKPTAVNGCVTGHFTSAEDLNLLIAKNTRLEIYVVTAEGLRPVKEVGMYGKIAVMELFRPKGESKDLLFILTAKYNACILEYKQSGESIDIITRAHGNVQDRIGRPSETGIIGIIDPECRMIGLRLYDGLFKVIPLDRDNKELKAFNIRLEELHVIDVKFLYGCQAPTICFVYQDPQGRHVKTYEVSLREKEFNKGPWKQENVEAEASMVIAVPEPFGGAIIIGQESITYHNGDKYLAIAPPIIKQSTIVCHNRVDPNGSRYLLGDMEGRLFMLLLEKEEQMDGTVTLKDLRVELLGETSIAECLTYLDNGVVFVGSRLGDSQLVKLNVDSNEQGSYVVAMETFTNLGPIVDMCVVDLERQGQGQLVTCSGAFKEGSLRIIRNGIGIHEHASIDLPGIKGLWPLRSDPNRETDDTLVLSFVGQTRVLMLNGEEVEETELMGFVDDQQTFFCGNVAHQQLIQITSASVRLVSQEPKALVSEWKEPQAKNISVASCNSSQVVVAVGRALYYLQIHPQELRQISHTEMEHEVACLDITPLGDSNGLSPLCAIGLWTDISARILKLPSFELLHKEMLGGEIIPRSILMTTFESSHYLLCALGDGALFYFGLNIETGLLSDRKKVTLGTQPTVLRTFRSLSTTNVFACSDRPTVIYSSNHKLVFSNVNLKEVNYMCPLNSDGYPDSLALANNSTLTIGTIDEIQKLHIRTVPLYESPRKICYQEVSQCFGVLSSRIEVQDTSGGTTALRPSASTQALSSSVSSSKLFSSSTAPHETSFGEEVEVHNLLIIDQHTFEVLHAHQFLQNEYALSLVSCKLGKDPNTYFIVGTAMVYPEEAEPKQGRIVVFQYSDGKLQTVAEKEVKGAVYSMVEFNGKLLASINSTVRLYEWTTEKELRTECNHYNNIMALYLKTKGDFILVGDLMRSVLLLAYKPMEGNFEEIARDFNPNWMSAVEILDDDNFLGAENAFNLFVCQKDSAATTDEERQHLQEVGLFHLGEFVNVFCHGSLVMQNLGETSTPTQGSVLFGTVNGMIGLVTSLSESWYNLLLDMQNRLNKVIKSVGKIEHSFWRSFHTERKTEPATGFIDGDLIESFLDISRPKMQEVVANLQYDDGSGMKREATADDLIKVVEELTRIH

Consider `Cn1c(NC2CCC(=O)NC2=O)nc2ccccc21` (stereo unspecified), for which the Kd is greater than 100 µM.

Usually Kd stands for the equilibrium constant for the complex coming apart.
